# Reference: publication PMC12040169 (PLOS Biology, 2025)
# Assay: in vitro
# Conditions: human, hela cells, % viability
row,Compound,"viability at 28.5 h, 10 µM [%]"
1,COc1ccc(/C=C(\C)C(=O)Nc2cccc(N3CCNCC3)c2)cc1OC [CBK034115T],90.1
2,CCOc1cccc(-c2cn3ccnc3c(N3CCN(CCO)CC3)n2)c1 [CBK066612],95.9
3,COc1ccc(/N=C2\S[C@H]3[C@H]([C@@H](O)[C@H](O)C[C@@H]3C(N)=O)N2Cc2ccc(F)cc2)cc1 [CBK288942],90.5
4,CCc1c(C)nc2c(NC(C)=O)cccc2c1SCCC(=O)O [CBK159594T],106
5,O=C1c2ccccc2C(=O)N1CCN1CCN(Cc2ccccc2)CC1 [CBK074813],110
6,CC1(C)CCCN(C(=O)CCn2ccc3ccncc32)C1 [CBK285173],87.3
7,CC(=O)NCCc1c(C(=O)O)[nH]c2ccc(OCc3ccccc3)cc12 [CBK260945],87.8
8,NC(=O)C1CCN(C2CC(=O)N(c3cccc([N+](=O)[O-])c3)C2=O)CC1 (stereo not drawn) [CBK265555],105
9,Nc1nc(O)c2c(n1)NC1(CCC1)[C@@H]1C[C@@H](O)[C@@H](O)[C@H]21 [CBK303248],118
10,COc1ccc(CNC2CCCc3c2cnn3C)c(OC)c1 (stereo not drawn) [CBK304875],103
11,COc1nnc(-c2ccc(N3CCOCC3)c(NC(=O)COc3ccc(C)cc3)c2)c2ccccc12 [CBK266103],97.6
12,O=C(NCCNc1cnccn1)c1ccc(Br)cc1F [CBK305639],89.5
13,Nc1cc2c(ncn2[C@@H]2C[C@@H](O)[C@@H](CO)O2)c(=O)[nH]1 [CBK201196],88.1
14,CC(C)(C)C1=CC2=NC3(CCCCCCCCCCC3)[C@@H]3C[C@@H](O)[C@@H](O)[C@@H]3N2O1 [CBK303254],113
15,Cc1ccc(-c2cc(CC3(C(=O)NC4CC4)CCOCC3)on2)cc1 [CBK284946],99.7
16,CN(C)/C=N/c1nc2c(nc(Br)n2C2CC(O)C(CO)O2)c(=O)[nH]1 (stereo not drawn) [CBK201319],84.7
17,CC(NC(=O)N1CCSCC1)c1ccc2c(c1)CC(=O)N2 (stereo not drawn) [CBK305093],96.7
18,CCOc1ccc(C(=O)NC(=S)Nc2ncccc2C)cc1[N+](=O)[O-] [CBK264128],98.3
19,CN1CCN(CCCNC(=O)N(C)C2CCN(C)C2)CC1 (stereo not drawn) [CBK155993],96.4
20,Cc1ccc(-n2c(O)nnc2-c2ccc(Cl)c(Cl)c2)cc1 [CBK074887],94.5
21,CC(=O)c1ccc(NC(=O)CSc2ncccc2C(=O)O)cc1 [CBK299798],94.4
22,CC(C)CCNC(=O)CC(=O)Nc1ccc(C(=O)O)cc1 [CBK286721],85.5

row,Compound,"viability at 28.5 h, 10 µM [%]"
1,O=C(Cn1cccc2cc(-c3ccc(F)cc3)nc1-2)N1CCOCC1 [CBK284809],87.5
2,O=S1(=O)N=c2cc3c(c4cccc1c24)=Nc1ccccc1N3 [CBK020253],89.9
3,O=C(CSc1nnc2sc3ccccc3n12)N1c2ccccc2Sc2ccccc21 [CBK265457],89
4,CCOc1ccccc1C(=O)Nc1ccc(O)cc1 [CBK099037],91.8
5,COc1nc(N)nc(C/C(=N\NC(=O)c2cccnc2)C2CC2)n1 [CBK019872],90.9
6,O=C(NCCCn1ccnc1)C1CCN(C(=O)c2cccc(Cl)c2)CC1 [CBK307596],116
7,COc1ccc(C)cc1-n1ccc(C(=O)NCC2(C)CCCS2)n1 (stereo not drawn) [CBK305355],83.3
8,CN(C)c1ccc(CC(=O)Nc2cnc(-c3cccc(C(F)(F)F)c3)c(-c3cccnc3)n2)cc1 [CBK036901],98.2
9,Cc1cc(C)nc(SCCCn2c(=O)[nH]c3ccccc32)n1 [CBK264485],112
10,O=C(O)c1cccc(NC(=O)c2cnc(-c3cccc(C(F)(F)F)c3)c(-c3cccc(CO)c3)c2)c1 [CBK037565],96
11,Cc1ccc(C)c2c(C)c(C(=O)N3CCC(O)C(C)C3)[nH]c12 (stereo not drawn) [CBK282527],97.4
12,COc1ccc(C(=O)N2C[C@H]3Cc4c(n[nH]c4C(F)F)[C@H]3C2)s1 [CBK283425],95.4
13,CC(C)CC(=O)N1CCN(C(=O)c2ccc(F)cc2)CC1 [CBK003603],91.1
14,Cc1[nH]nc(-c2ccc(O)c(C)c2O)c1Oc1ccc(F)cc1 [CBK264478],124
15,O=C(CSc1nnc(-c2ccccc2)n1C1CCCCC1)Nc1ccc(Cl)cc1Cl [CBK267424],100
16,CCOC(=O)CNS(=O)(=O)c1ccc(-c2ccccc2)cc1 [CBK034435],99.5
17,CCCC/C=C/c1cnc2[nH]c(=O)n(CCc3cccnc3)c2n1 [CBK064496],92.7
18,Cc1ccc(S(=O)(=O)CCC(=O)Nc2ccc3sc(C)nc3c2)cc1 [CBK287706],99.3
19,Cc1sc(NC(=S)NC(=O)C(C)(C)C)c(C(N)=O)c1C [CBK268943],97.1
20,Cc1ccc(Oc2cc(C)c([N+](=O)[O-])cn2)c(Br)c1 [CBK002823],92.2
21,CC(C)Cc1cc(CNC(=O)Nc2cc(-c3cccnc3)nn2C)no1 [CBK307048],84.9
22,CC(Sc1ccc(Cl)cc1)C(=O)Nc1ccc(CSc2ccccc2)cc1 (stereo not drawn) [CBK264670],93.2

row,Compound,"viability at 28.5 h, 10 µM [%]"
1,O=C(COc1cccc2c1CCNC2=O)Nc1ccccc1 [CBK287730],89
2,O=S(=O)(c1c(Cl)cccc1Cl)n1ccc2c(N3CCNCC3)nccc21 [CBK059060C],91.4
3,CCN(CC)C(=O)CN1C(=O)[C@H]2CCCN2C(=O)c2ccccc21 [CBK286319],95.5
4,CS(=O)(=O)c1ccc(CNC(=O)c2cc(-c3ccc(C(=O)N4CCOCC4)cc3)cnc2N)cc1 [CBK158599],93
5,CC(C)CC(C(=O)Nc1ccc(Br)cc1)N1C(=O)c2ccccc2C1=O (stereo not drawn) [CBK264253],94.1
6,c1c2c(cc3sc(N4CCOCC4)nc13)OCO2 [CBK287494],97.7
7,NC(=O)CSc1nnc(NC(=O)c2ccccc2Cl)s1 [CBK287629],89.9
8,CN(CCN1CCCCC1)C(=O)CCc1cn(C)c2ccccc12 [CBK281906],94.3
9,CC(C)NC(=O)[C@@H](C)C1CC[C@@]2(C)CC[C@H](NC(=O)c3ccncc3)[C@@H](C)[C@@H]2[C@H]1O (stereo partly drawn) [CBK289449],89.1
10,COCC(C)NC(=O)C1CCCN(S(=O)(=O)c2ccc(OC)c(C)c2)C1 (stereo not drawn) [CBK270242],86
11,Cc1cc(C(=O)CSc2nccc(C(F)(F)F)n2)c(C)n1C1CC1 [CBK305238],80
12,COc1ccc(C2(CN3CCC(NC(C)=O)CC3)CCCC2)cc1 [CBK283241],85.4
13,Nc1ccc(-c2nnn(CC(=O)NC3CCCCC3)n2)cc1 [CBK135771],86.7
14,O=C(NCCNc1ccc(Cl)cc1[N+](=O)[O-])c1ccccc1Br [CBK263538],102
15,COc1cc(C(=O)N2CCN(C(=O)CC(C)C)CC2)cc(OC)c1OC [CBK003604],99.2
16,CCOC(=O)N1CCC(NS(=O)(=O)c2ccc(F)cc2)CC1 [CBK045455],95.1
17,CN(C)c1cccc(-c2cncc(Nc3ccc(Cl)cc3)n2)c1 [CBK065738],98.8
18,O=C(COc1ccc(Cl)cc1Cl)Nc1ccc(CN2CCCCC2)cc1 [CBK266164],105
19,CC(C)(C)OC(=O)N1CCCC2(CCCN(C(=O)c3ccco3)C2)C1 (stereo not drawn) [CBK284463],94.7
20,Cc1ccc(NC(=O)NCCC2=CCCCC2)cc1Cl [CBK044135],110
21,Cc1ccc(Nc2c([N+](=O)[O-])nn(-c3ccccc3)[n+]2[O-])cc1F [CBK268414],102
22,O=S1(=O)N=C(Nc2ccc(S(=O)(=O)N3CCOCC3)cc2)c2ccccc21 [CBK269116],91

row,Compound,"viability at 28.5 h, 10 µM [%]"
1,O=C(O)c1cccc2c3c([nH]c12)CCCCC3 [CBK003451],85
2,O=C(O)CCSc1nc(-c2ccccc2)c(-c2ccccc2)n1-c1ccccc1 [CBK264837],113
3,CCCc1ccc(OCC(=O)Nc2ccccc2C(N)=O)cc1 [CBK263103],88.7
4,O=C(O)c1cc(Cl)c(OCc2cc(-c3ccccc3)no2)c(Cl)c1 [CBK295297],86.7
5,Cc1nn(C)c(Cl)c1CN1CCOC(c2ccccc2)C1 (stereo not drawn) [CBK305244],83.2
6,Cc1cc(C(=O)NC2CCCc3c2cnn3-c2ccc(F)cc2)on1 (stereo not drawn) [CBK282310],108
7,Cc1nc2ccc(C(=O)OCc3ccc(S(=O)(=O)Cc4ccccc4)cc3)cc2nc1C [CBK269661],97.6
8,O=S(=O)(Nc1ccc(C(O)(C(F)(F)F)C(F)(F)F)cc1)c1cccc2cccnc12 [CBK062092],91
9,CC(C)n1c(CN2CCOCC2)nc2c1c(=O)n(C)c(=O)n2C [CBK306201],83.7
10,CCn1c(C)nc2cc(S(N)(=O)=O)ccc21 [CBK260950],92.1
11,Cc1ccc(S(=O)(=O)NC(=O)NCCCCNC(=O)NS(=O)(=O)c2ccc(C)cc2)cc1 [CBK296078],102
12,CCc1cc(Br)ccc1S(=O)(=O)NCc1cccc(F)c1 [CBK045114],89.1
13,O=C(C1CCCC1)N1C2CCC1CC(O)(c1cccnc1F)C2 (stereo not drawn) [CBK284421],88.4
14,Nc1cc(N)nc(SCc2ccccc2)n1 [CBK261266],96.1
15,CC(=O)Nc1nc(NC(C)=O)n2c(-c3ccccc3)nnc2n1 [CBK026649],93.7
16,NC(=O)Nc1ccc2c(c1)ncn2C1CCCCC1 [CBK288176],95.6
17,Nc1ccc2c(c1)/C(=C/c1c[nH]c3ncccc13)C(=O)N2 [CBK010155T],103
18,O=C(O)CCC(C(=O)O)N1C(=O)/C(=C\C(Cl)=C/c2ccc([N+](=O)[O-])cc2)SC1=S (stereo not drawn) [CBK261011],92.1
19,Cn1c(CN2CCN(C(=O)c3ccco3)CC2)nc2cc([N+](=O)[O-])ccc21 [CBK268473],108
20,COc1ccc(OC)c(NC(=O)c2ccccc2C(=O)O)c1 [CBK287082],86.9
21,CCOC(=O)C1=C(C(=O)OCC)SC(=C2C(=S)C(C)(C)N(C(=O)c3ccc4ccccc4c3)c3ccccc32)S1 [CBK261643],103
